Source: patent US20110293746A1, “Modulation of Gsk-3Beta and Method of Treating Proliferative Disorders” (Agency For Science, Technology and Research, priority 2004, published 2011)
Entries after “also recorded” stand apart in the source; their conditions may differ.

Columns and labels:
GSK-3α = molecular target: T1, GSK-3α (Homo sapiens, UniProt P49840); test: Immunoblot analysis of GSK-3 phosphorylation status in HCT116 cells; format: cell-based
T1 construct: endogenous in cells; host or cells: HCT116
Description: (§1) Protein concentration was quantified (Bio-Rad, Hercules, Calif.) and protein samples (50 μg) were separated by SDS/PAGE and transferred onto Immobilon™ membranes (Millipore, Bedford, Mass.). […] To detect Bax conformational change, cells were lysed in 1% Chaps buffer and the soluble fraction was immunoprecipitated with anti-Bax monoclonal antibody (6A7, BD, PharMingen), followed by immunoblotting with anti-Bax polyclonal antibody.
(§2) Subcellular fractionation: Cells were lysed in mitochondria lysis buffer (210 mM Mannitol, 70 mM Sucrose, 10 mM Hepes (pH, 7.4), 1 mM EDTA, protease inhibitor cocktail) with a Dounce homogenizer and subjected to centrifugation at 1000×g to pellet the nuclei. Post-nuclear supernatant was centrifuged at 10,000×g to pellet the mitochondria-enriched heavy membrane fraction, and the resulting supernatant was further centrifuged to obtain cytosolic fraction. Total proteins (30 μg) from cytosolic or mitochondrial fractions were subjected to immunoblot analysis.

GSK-3β = molecular target: T2, GSK-3β (Homo sapiens, UniProt P49841); test: as above; format: cell-based
T2 construct: endogenous in cells; host or cells: HCT116
Description: as §1, §2

Bax = Bax conformational activation (IP with 6A7 antibody, Western blot); format: cell-based, Human; conditions: co-treatment with LY2119301 and ADR, etoposide or 5-FU, 24 h
Description: (§3) Western blotting, immunoprecipitation and microarray analysis: Cells were scraped, collected and lysed as described previously (Yu, Q., et al. Cancer Res, 62: 5743-5748, 2002). Briefly, cells were lysed with cell lysis buffer (0.3% NP40, 1 mM EDTA, 50 mM Tris-HCl (pH 7.4), 2 mM EGTA, 1% Triton X-100, […], 25 mM NaF, 1 mM Na3VO4, 2 mM AEBSF, 5 μg/ml aprotinin, 1 μg/ml leupeptin) for 30 minutes on ice, and the lysates were clarified by centrifugation at 12,000×g for 15 minutes at 4° C. Protein concentration was quantified (Bio-Rad, Hercules, Calif.) and protein samples (50 μg) were separated by SDS/PAGE and transferred onto Immobilon™ membranes (Millipore, Bedford, Mass.). Antibodies against the following proteins were used: p53 (DO-1), p21, PARP, GSK-α/β, α-Tubulin, and β-actin (Santa Cruz Biotechnology), Puma (Ab-1, Oncogene), Bax (Sigma), phosphor-(Ser9/21)-GSK-3α/β and Caspase-9 (Cell Signaling Technologies), phosphor-(Tyr216/279)-GSK-3α/β (Upstate Biotechnologies), cytochrome c (BD PharMingen). To detect Bax conformational change, cells were lysed in 1% Chaps buffer and the soluble fraction was immunoprecipitated with anti-Bax monoclonal antibody (6A7, BD, PharMingen), followed by immunoblotting with anti-Bax polyclonal antibody. Microarray analysis was performed as described (Kho, P. S., et al. J Biol Chem, 279: 21183-21192, 2004).

[1] = system: p53-responsive genes in HCT116; test: Microarray analysis of p53-responsive genes; format: cell-based, Human; conditions: concurrent treatment with ADR and LY2119301
Description: as §3

HT29 = test: Apoptosis in p53 mutant colon cancer cell line; format: cell-based, Human; conditions: data not shown
Description: (§4) FACS analysis of DNA content and caspase-3 activity: Cells were harvested and fixed in 70% ethanol. Fixed cells were stained with propidium iodide (50 μg/ml) after treatment with RNase (100 μg/ml). The stained cells were analyzed for DNA content by fluorescence-activated cell sorting (FACS) in a FACScalibur™ (Becton Dickinson Instrument, San Jose, Calif.). Cell cycle fractions were quantified using the CellQues™ software (Becton Dickinson). To measure caspase-3 activity, cells were fixed with Cytofix/Cytoperm™ solution (BD PharMingen) as instructed, and then stained with FITC-conjugated rabbit anti-active caspase-3 monoclonal antibody (BD PharMingen). Quantification of cells positive for the caspase-3 detection was performed by flow cytometry.

HCT116 cells = test: FACS analysis of DNA content (sub-G1 apoptotic fraction); format: cell-based, Human
Description: (§5) Cell culture and drug treatments: Human colon cancer cell line HCT116 and its derived isogenic p53^−/−, Puma^−/−, Bax^−/− and p53-inducible DLD cell lines were kindly provided by Dr. Bert Vogelstein (Johns Hopkins University, MD). RKO and RKO/E6 cells were from ATCC. Cells were cultured in DMEM containing 10% FBS. All culture reagents and media were from Invitrogen. 5-Fluorouracil, Adriamycin, etoposide and lithium chloride were purchased from Sigma. GSK-3β specific small molecule inhibitor LY2119301 was a gift from Eli Lilly (Indianapolis) and SB-216763, SB-415283 were obtained from BIOMOL.
as §4

HCT116 p53 −/− cells = test: as above; format: cell-based, Human
Description: as §5, §4

[2] = system: HCT116 cells infected with Ad-p53; test: Apoptosis and immunoblot in cells infected with adenovirus expressing p53; format: cell-based, Human
Description: as §3, §4
Adenoviral infections: Adenovirus Ad-LacZ and Ad-p53 were obtained from Dr. Shibin Zhou (Johns Hopkins University, Md.). Cells were grown to 50% confluence and infected with recombinant adenovirus as described (Yu, J., et al. Proc Natl Acad Sci USA, 96: 14517-14522, 1999). Twenty-four hours after the infection, cells were treated with drugs for the indicated times.

HCT116 Bax −/− cells = test: Mitochondrial membrane potential by JC-1 staining and FACS; format: cell-based, Human; conditions: co-treated with LY2119301 and genotoxic treatments
Description: (§6) Measurement of mitochondrial permeability transition: Cells were harvested by centrifugation at 300×g at 4° C. for 5 min. Mitochondrial permeability transition was determined by staining the cells with JC-1 (BD PharMingen) according to the manufacturer's instructions. Mitochondrial permeability transition was quantified by flow cytometric determination of cells with decreased red fluorescence, i.e. with mitochondria displaying a lower membrane potential (ΔΨm). Data are given in percentage of cells with low ΔΨm.

HCT116 cells (Bax+/+) = test: as above; format: cell-based, Human; conditions: co-treated with LY2119301 and genotoxic treatments
Description: as §6

p53 in HCT116 cells = test: p53 accumulation in cytosol and mitochondria (subcellular fractionation, Western blot); format: cell-based, Human; conditions: in the presence of LY2119301, etoposide 24 h
Description: as §3, §2

[3] = nuclear and cytoplasmic fractions

T1 sequence (P49840 whole entry): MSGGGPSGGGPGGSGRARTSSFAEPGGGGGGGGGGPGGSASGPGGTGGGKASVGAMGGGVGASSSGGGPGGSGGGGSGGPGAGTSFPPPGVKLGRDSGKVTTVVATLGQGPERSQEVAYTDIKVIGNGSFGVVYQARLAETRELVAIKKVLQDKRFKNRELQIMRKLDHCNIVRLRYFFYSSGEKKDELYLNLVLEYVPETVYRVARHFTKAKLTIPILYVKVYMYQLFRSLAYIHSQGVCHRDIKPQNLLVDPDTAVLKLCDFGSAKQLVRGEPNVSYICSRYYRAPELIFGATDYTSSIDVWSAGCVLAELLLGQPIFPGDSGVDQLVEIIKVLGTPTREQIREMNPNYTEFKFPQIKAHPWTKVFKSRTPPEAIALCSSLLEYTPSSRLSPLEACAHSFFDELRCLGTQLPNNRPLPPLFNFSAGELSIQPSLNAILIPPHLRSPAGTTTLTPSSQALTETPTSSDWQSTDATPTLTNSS
T2 sequence (P49841 whole entry): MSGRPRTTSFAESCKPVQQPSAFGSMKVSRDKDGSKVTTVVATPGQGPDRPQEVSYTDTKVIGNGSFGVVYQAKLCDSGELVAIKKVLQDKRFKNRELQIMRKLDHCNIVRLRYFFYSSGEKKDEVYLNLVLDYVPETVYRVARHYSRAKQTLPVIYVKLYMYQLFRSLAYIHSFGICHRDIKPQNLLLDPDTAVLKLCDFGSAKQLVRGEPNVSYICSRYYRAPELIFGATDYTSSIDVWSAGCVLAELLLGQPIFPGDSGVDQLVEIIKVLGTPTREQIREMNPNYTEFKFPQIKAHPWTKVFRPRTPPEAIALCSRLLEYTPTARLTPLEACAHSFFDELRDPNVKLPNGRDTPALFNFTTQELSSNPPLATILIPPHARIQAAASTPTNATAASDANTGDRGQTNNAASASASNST

CN1CCN(c2ccc(NCCNc3ccc([N+](=O)[O-])c(N)n3)nc2-c2ccc(Cl)cc2Cl)C(=O)C1 [LY2119301]
activating tyrosine phosphorylation on GSK-3α (GSK-3α; HCT116 whole lysate immunoblot): almost completely blocked | inhibitory serine 21 phosphorylation on GSK-3α (GSK-3α; HCT116 whole lysate immunoblot): much lesser extent | tyrosine phosphorylation of GSK-3α (GSK-3α; [3]): blocked | activating tyrosine phosphorylation on GSK-3β (GSK-3β; HCT116 whole lysate immunoblot): almost completely blocked | inhibitory serine 9 phosphorylation on GSK-3β (GSK-3β; HCT116 whole lysate immunoblot): increase | tyrosine phosphorylation of GSK-3β (GSK-3β; [3]): blocked | serine phosphorylation on GSK-3β in cytoplasm and nucleus (GSK-3β; nuclear and cytoplasmic fractions, with or without DNA damage): triggered | levels of conformationally active Bax (Bax): dramatically increased | induction of p53 responsive genes [1]: uniformly attenuated | apoptosis induction (HT29): not induced | 5-FU-induced apoptosis (HCT116 cells; 5-FU in presence of LY2119301): greatly sensitized | apoptosis in response to other DNA damaging agents (HCT116 cells; LY2119301 with etoposide (10 μM) or camptothecin (100 nM), 24 h): triggered p53-dependent apoptosis; also recorded: robust apoptosis | cell death, sub-G1 population (HCT116 cells; co-treatment ADR (1 μM) and LY2119301 (5 μM), 24 h): ~59% | increase in apoptosis induction by 5-FU (HCT116 cells; dose-effect experiments, 5-FU in presence of LY2119301): 10 fold | concentration able to induce apoptosis in ADR-treated cells (as low as) (HCT116 cells; with ADR): 250 nM | 5-FU-induced apoptosis (HCT116 p53 −/− cells; 5-FU in presence of LY2119301, cells null for p53): no increased apoptosis | synergistic induction of cell death (HCT116 p53 −/− cells; ADR and LY2119301 co-treatment, 24 h, p53 knockout): not seen | Bax activation ([2]; IP-Western, p53 over-expression plus LY2119301): similarly seen | apoptosis induced by enforced p53 expression ([2]; LY2119301 24 h): significantly increased | ectopically expressed p53 protein levels ([2]; immunoblot): no effect | p53 dependent transcription of p21 ([2]; immunoblot): no effect | reduction of mitochondrial membrane potential (HCT116 Bax −/− cells): not | mitochondrial membrane potential (HCT116 cells (Bax+/+)): significant reduction | etoposide-induced p53 accumulation in cytosol (p53 in HCT116 cells): similarly decreased | etoposide-induced p53 accumulation in mitochondria (p53 in HCT116 cells): similarly decreased
